Test results as given in patent US20210270852A1, “Methods of Detecting Neuroaxonal Dystrophy Disorders Associated with Vitamin E Deficiency and Uses Thereof” (The Regents of the University of California, priority 2018, published 2021).
Each block holds one molecule with its values, some of them ahead of it.

Tests used:
[1] = Initial trials: detected range of plasma vitamin E metabolites (LC-MS); type: in vivo, horse
Protocol: (§1) Analytes were simultaneously quantified via ultra-performance liquid chromatography-tandem mass spectrometry (LC-MS). LC-MS analysis was carried out using a Bruker EVOQ LC-TQ Mass Spectrometer coupled with a Bruker Advance HPLC system (Bruker Corp, Freemont, Calif., USA). Mass spectral data for α- and γ-tocopherols and α- and γ-tocotrienols were acquired in the positive ion electrospray ionization (ESI) mode with the following retention times (RT) and scan events: γ-tocotrienol—RT 11.65 min, MRM 411.0>151.0 (CE 19.0V), α-tocotrienol—RT 12.0 min, MRM 425.1>165.1 (CE 20.0V), γ-tocopherol—RT 13.3 min, MRM 417.2>151.0 (CE 25.0V), 5-methyl-D3,7-methyl-D3 (TD6)—RT 13.8 min, MRM 437.4>171.0 (CE 27.0V), and α-tocopherol—RT 13.8 min, MRM 431.2>165.0 (CE 25.0V). Mass spectral data for α- and γ-CEHC and α-CMBHC were acquired in the negative ion ESI mode with the following retention times (RT) and scan events: α-CMBHC—RT 7.45 min, MRM 319.1>150.1 (CE 22.0V), α-CEHC—RT 5.70 min, MRM 277.0>233.1 (CE 14.0V), and γ-CEHC—RT 5.30 min, MRM 263.1>219.1 (CE13.0V). Quantification was carried out using a 10-point calibration curve covering the range from 0.1 ng/mL to 5,000 ng/mL and linear regression. Each level of calibration standard contained the internal standard TD6 at 100 ng/mL and CUDA at 2 ng/mL, matching their final concentrations in the analysis samples.
The limit of detection (ng/mL) and detected range (ng/mL), respectively, for each plasma vitamin E metabolite measured in these initial trials were as follows: α-TOH (0.1; 500-1000), γ-TOH (0.2; 10-15), α-tocotrienol (0.2; 0.2-0.6), γ-tocotrienol (0.2; 5-10), α-CMBHC (<0.05; 0.1-0.4), γ-CEHC (<0.05; 0.2-0.6), and α-CEHC (<0.05; 0.1-0.2).

[2] = Reference values of tocopherols, tocotrienols and metabolites in healthy grazing Thoroughbred horses (LC-MS); type: in vivo, horse
Protocol: (§2) In particular, the levels of a panel of tocopherols and tocopherol metabolites were assessed by liquid chromatography-mass spectrometry (LC-MS) in samples obtained from eNAD affected horses and matched healthy controls. Reference ranges of α-TOH, γ-TOH, α-TOT, γ-TOT, α-CEHC, γ-CEHC, and α-CMBHC were determined from serum, plasma and urine samples obtained from 16 healthy adult Thoroughbred horses on pasture. Next a supplementation trial was performed employing samples from eNAD-affected horses and neurologically normal age and sex-matched controls. Levels were assessed at baseline and after administration of bioavailable RRR-alpha-tocopherol according to the sample collection schedule described (see e.g., FIG. 2).
as §1

[3] = Supplementation trial: serum levels in eNAD-affected and control horses at baseline and after bioavailable RRR-alpha-tocopherol (LC-MS); type: in vivo, horse
Protocol: This example describes investigations into the role of metabolism of α-TOH in horses affected with eNAD/EDM. Accordingly, the rate of α-TOH and γ-TOH metabolism was determined through the measurement of CEHCs in healthy and eNAD-affected horses following α-TOH supplementation.
as §2, §1
Simultaneous quantification of α-TOH, γ-TOH, α-tocotrienol, γ-tocotrienol, α-CEHC, γ-CEHC, and α-CMBHC has not been previously performed in the horse. Data was Log-transformed. Correspondence between sample types (e.g., plasma vs. serum) was evaluated and statistical testing by Mixed-model ANOVA was performed (fixed variables=disease, time; randomized variable=horse; 2-way interactions; p<0.05).

[4] = earlier study; cited from earlier work
[5] = serum, healthy grazing TBs, tocotrienols

Molecule: Cc1c(C)c2c(c(C)c1O)CCC(C)(CCC(=O)O)O2 (stereo not drawn) [α-CEHC, alpha-carboxyethyl-hydroxychroman]
detected range of plasma vitamin E metabolite ([1]; in vivo): 0.1 to 0.2 ng/mL | mean value for healthy grazing TBs ([2]; in vivo): 0.33±0.12 | median value for healthy grazing TBs ([2]; in vivo): 0.31 | range of values for healthy grazing TBs ([2]; in vivo): 0.18-0.67

Molecule: Cc1c(O)cc2c(c1C)O[C@](C)(CCC[C@H](C)CCC[C@H](C)CCCC(C)C)CC2 [γ-TOH, gamma-tocopherol]
detected range of plasma vitamin E metabolite ([1]; horse, in vivo): 10 to 15 ng/mL | mean value for healthy grazing TBs ([2]; Thoroughbred, horse, in vivo): 27.1±9.82 | median value for healthy grazing TBs ([2]; Thoroughbred, horse, in vivo): 25.6 | range of values for healthy grazing TBs ([2]; Thoroughbred, horse, in vivo): 10.3-44.7

Molecule: CC(C)=CCC/C(C)=C/CC/C(C)=C/CC[C@]1(C)CCc2cc(O)c(C)c(C)c2O1 [γ-TOT, gamma-tocotrienol]
difference in serum tocotrienol levels with time or disease ([3]; serum, eNAD vs control horses, over time): no significant difference | detected range of plasma vitamin E metabolite ([1]; plasma, initial trials): 5 to 10 ng/mL | mean value in healthy grazing TBs [2, 5]: 0.13 ± 0.36 ng/mL | median value in healthy grazing TBs [2, 5]: 0.02 ng/mL | range of values in healthy grazing TBs [2, 5]: 0.02 to 1.79 ng/mL

Molecule: alpha-tocotrienol [α-TOT]
difference in serum tocotrienol levels with time or disease ([3]; in vivo): no significant difference | detected range of plasma vitamin E metabolite ([1]; in vivo): 0.2 to 0.6 ng/mL | mean value in healthy grazing TBs ([2]; in vivo): 0.31 ± 0.36 ng/mL | median value in healthy grazing TBs ([2]; in vivo): 0.15 ng/mL | range of values in healthy grazing TBs ([2]; in vivo): 0.004 to 1 ng/mL

Continued, in another order:

Serum α-CMBHC (median, range) ([3]; horse, in vivo, 56 day): 0.32 (0.12-0.40) ng/mL | concentration at 56 day ([3]; horse, in vivo, Serum α-CMBHC (median, range)): 0.28 ng/mL | detected range of plasma vitamin E metabolite ([1]; horse, in vivo): 0.1 to 0.4 ng/mL | mean value for healthy grazing TBs ([2]; Thoroughbred, horse, in vivo): 0.72±0.37 | median value for healthy grazing TBs ([2]; Thoroughbred, horse, in vivo): 0.6 | range of values for healthy grazing TBs ([2]; Thoroughbred, horse, in vivo): 0.32-1.71
Molecule: Cc1c(C)c2c(c(C)c1O)CCC(C)(CCCC(C)C(=O)O)O2 (stereo not drawn) [α-CMBHC, 2-(4-Carboxy-4-methylbutyl)-6-hydroxy-2,5,7,8-tetramethylchroman]

rate of α-TOH metabolism in eNAD horses vs control horses ([3]; in vivo): faster rates than control horses | detected range of plasma vitamin E metabolite ([1]; in vivo): 500 to 1000 ng/mL | mean value for healthy grazing TBs ([2]; in vivo): 4292±892 | median value for healthy grazing TBs ([2]; in vivo): 4348 | range of values for healthy grazing TBs ([2]; in vivo): 2855-6299
Molecule: Cc1c(C)c2c(c(C)c1O)CC[C@@](C)(CCC[C@H](C)CCC[C@H](C)CCCC(C)C)O2 [α-TOH, alpha-tocopherol, reference compound]
α-TOH absorption indices, eNAD-affected vs unaffected horses [4]: no significant differences

detected range of plasma vitamin E metabolite ([1]; in vivo): 0.2 to 0.6 ng/mL | mean value for healthy grazing TBs ([2]; in vivo): 0.43±0.18 | median value for healthy grazing TBs ([2]; in vivo): 0.38 | range of values for healthy grazing TBs ([2]; in vivo): 0.26-0.89
Molecule: Cc1c(O)cc2c(c1C)OC(C)(CCC(=O)O)CC2 (stereo not shown) [γ-CEHC, gamma-carboxyethyl-hydroxychroman]
